Assay results from patent US20130330749A1, “METHOD AND APPARATUS FOR DETECTING LIVER DISEASE, AND METHOD FOR ASSAYING PHARMACEUTICAL PREPARATION” (priority 2008, published 2013).

Key:
glutathione = conditions: mouse, large quantities of APAP, cited from earlier work
[1] = molecular target: T1, γ-glutamyl cysteine synthase (GCS) (Mus musculus, UniProt P97494); assay: Administration of GCS inhibitor BSO and GCS activator DEM to mice; metabolites in liver and serum measured by CE-TOFMS; format: in vivo; conditions: intraperitoneal 4 mmol/kg
T1 construct: Liver specimens (about 300 mg) were excised from the mice 1 hour after administration; from tissue; host or cells: mouse liver (in vivo, intraperitoneal dosing); serum also measured
T1 sequence (P97494 1-637): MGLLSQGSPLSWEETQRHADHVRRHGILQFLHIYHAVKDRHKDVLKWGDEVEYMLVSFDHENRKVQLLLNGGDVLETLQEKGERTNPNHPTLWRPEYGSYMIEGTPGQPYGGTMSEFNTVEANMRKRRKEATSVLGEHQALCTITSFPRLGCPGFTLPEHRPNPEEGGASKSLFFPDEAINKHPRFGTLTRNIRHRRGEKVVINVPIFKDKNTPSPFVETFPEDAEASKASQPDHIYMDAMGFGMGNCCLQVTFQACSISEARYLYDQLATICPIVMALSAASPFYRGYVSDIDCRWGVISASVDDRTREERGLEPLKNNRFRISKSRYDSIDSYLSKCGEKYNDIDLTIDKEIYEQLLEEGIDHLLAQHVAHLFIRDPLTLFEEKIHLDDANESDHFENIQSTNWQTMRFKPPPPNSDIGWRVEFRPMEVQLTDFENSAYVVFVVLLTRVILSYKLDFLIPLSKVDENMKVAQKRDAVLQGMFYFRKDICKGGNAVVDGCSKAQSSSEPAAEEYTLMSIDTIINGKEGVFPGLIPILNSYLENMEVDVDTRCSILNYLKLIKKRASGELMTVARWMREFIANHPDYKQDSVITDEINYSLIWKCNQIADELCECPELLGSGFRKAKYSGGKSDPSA
T1 sequence (O09172 1-274 partner): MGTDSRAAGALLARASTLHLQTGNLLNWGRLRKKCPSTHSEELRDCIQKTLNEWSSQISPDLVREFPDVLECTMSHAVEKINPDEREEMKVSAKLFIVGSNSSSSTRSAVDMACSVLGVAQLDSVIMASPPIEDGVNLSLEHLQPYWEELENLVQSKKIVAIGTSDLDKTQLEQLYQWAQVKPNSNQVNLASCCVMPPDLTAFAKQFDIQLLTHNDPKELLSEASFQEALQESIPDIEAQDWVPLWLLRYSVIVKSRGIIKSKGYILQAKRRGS
Description: The biosynthesis mechanism of γ-Glu-X peptides was elucidated using a mouse. As shown in FIG. 1(B), the following biosynthesis mechanism of γ-Glu-X peptides was found. That is, the oxidative stress condition caused by active oxygen and electrophiles causes depletion of glutathione, which is used for removing these substances, and this depletion leads to activation of γ-glutamyl cysteine synthase (GCS). Then, γ-Glu-X dipeptides and γ-Glu-X-Gly tripeptides are biosynthesized by using various amino acids as substrates (starting materials). The experimental procedures are described below.
Male mice were fasted overnight and anesthetized by an intraperitoneal injection of pentobarbital sodium (60 mg/Kg of body weight). Then, the mice were intraperitoneally injected with BSO, which is a γ-glutamyl cysteine synthase (GCS) inhibitor, and diethylmaleate (DEM), which is an electrophile (GCS activator), both at a dose of 4 mmol/kg of body weight (888 mg of BSO, 688 mg of DEM). The mouse as a healthy subject was intraperitoneally injected with physiological saline. Liver specimens (about 300 mg) were excised from the mice 1 hour after administration (5 times each).
The liver specimens (about 300 mg) excised from the mice were immediately placed in 1 ml of methanol containing an internal standard substance and were homogenized to inactivate an enzyme, thereby stopping enhancement of metabolism. After 500 μl of pure water was added to the mixture, 300 μl of solution was taken out. To this solution, 200 μl of chloroform was added. After thorough stirring, the solution was further centrifuged at 15000 rpm for 15 minutes at 4° C. After allowing to stand, 300 μl of separated water-methanol phase was passed through a 5 kDa molecular weight cutoff filter for centrifugal ultrafiltration to deproteinize it. The filtrate was lyophilized and 50 μl of Milli-Q water was added thereto. The mixture was subjected to a CE-TOFMS measurement.
The method described below was used to confirm that the detected γ-Glu-X peptides and γ-Glu-X-Gly peptides were synthesized in a glutathione-biosynthesis pathway. […]

CC(=O)Nc1ccc(O)cc1 [APAP, Acetaminophen]
ophthalmic acid level (glutathione; in inverse proportion to the glutathione level): increased rapidly | glutathione level (glutathione): decreased

CCCCS(=N)(=O)CCC(N)C(=O)O (centres unmarked) [BSO]
amount of glutathione in the livers ([1]; liver 1 hour after administration, compared to the healthy (saline) mouse): decreased rapidly | γ-Glu-X and γ-Glu-X-Gly peptidic substances in the liver other than γ-Glu-Cys, GSH and γ-Glu-Ser-Gly ([1]; liver 1 hour after administration, compared to the healthy subject): decreased | γ-Glu-2AB and ophthalmic acid (γ-Glu-2AB-Gly) in the murine serum ([1]; serum, compared to the normal state): decreased
